Entries after “also recorded” stand apart in the source; their conditions may differ.
Test system: muscle layer of the ileum
Test: Thickness of the muscle layer of the ileum in young IUGR rats supplemented with HMOs
Assay type: in vivo, Sprague-Dawley rats
Details: IUGR rat pups; 3 g/kg body weight HMO by gavage d7 to d21, then 4.5% HMO in diet d22 to d57 (mix: LNnT:2FL 1:2 by weight, 1.5% + 3%); sacrificed at day 57; H&E histology; compared with Normal and IUGR control groups
Excerpt: Three groups of time-mated pregnant Sprague-Dawley female rats were bought from Charles River laboratories. One group was submitted to food restriction of 60% during the last 10 days of gestation and their offspring were cross-fostered to normally fed rats. A second group of pregnant females was normally fed and their offspring cross-fostered among the same group of dams. Immediately after birth (postnatal day 2 (d=2)), the born rat pups—subjects of the experiment—were assigned to one of the following groups: • Normal group (positive control): Normal-weight offspring born from unrestricted dams and fed after birth a normal non-supplemented diet; • IUGR group (negative control; n=20): IUGR rats being fed a normal diet after birth; • IUGR rats+HMO (test groups): During the experiment, they were reared by their mothers for 21 days and supplemented with HMOs (2-FL, LNnT or the Mix of 2-FL and LNnT). At weaning, they were fed a diet supplemented with the same HMOs, see details below. […]
Rats were sacrificed at day 57 after a 6-hr fasting period and samples of the small intestine were collected. The thickness of the muscle layer was measured on a sample of the ileum. […]

Compound | thickness of the muscle layer of the ileum (mean per group, FIG. 1)
2′-fucosyllactose [2FL, reference compound] | no increase in intestinal muscle thickness
CC(=O)N[C@H]1[C@H](O[C@H]2[C@@H](O)[C@@H](CO)O[C@@H](O[C@H]3[C@H](O)[C@@H](O)C(O)O[C@@H]3CO)[C@@H]2O)O[C@H](CO)[C@@H](O[C@@H]2O[C@H](CO)[C@H](O)[C@H](O)[C@H]2O)[C@@H]1O (mixture of isomers) [LNnT, lacto-N-neotetraose] | successful in increasing the thickness; also recorded: increase of the ileum muscle thickness over both the Normal and the IUGR groups
